Results taken from patent US9623048B2, “Human hepatocyte-like cells and uses thereof” (SHANGHAI INSTITUTES FOR BIOLOGICAL SCIENCES, CHINESE …, priority 2013, dated 2017).
Read-outs that look alike come from different tables or passages of the source.

What was measured:
[1] = test system: CYP450 enzymes in hiHep cells; experiment: CYP induction assay in hiHep cells (q-PCR); conditions: 48 hours inducer treatment
Procedure: Total RNA was extracted to measure the induction of CYP enzymes responding to chemical inducers by q-PCR. Total RNA of cells without inducer treatment were used to measure the expression of CYP450 genes and nuclear receptor genes.
Next, assays were carried out to analyze whether hiHep cells were responsive to CYP inducers.
Transcriptional activation of CYP450 enzymes and many other drug metabolism enzymes are mediated by nuclear receptors including AHR, CAR, and PXR.

hiHep cells [2] = experiment: Sandwich culture biliary excretion assay in hiHep cells; conditions: sandwich cultured hiHep cells, 10 minutes incubation
Procedure: To prepare sandwich culture, 1×10^5 hiHep cells, primary human hepatocytes, and HFF were seeded in collagen I coated 24 well plate. 200 μL 1.5 mg/ml freshly prepared neutralized collagen gel solution were then poured on cells. After solidification, cells were cultured in Williams' E medium supplemented with 5% FBS, 10 μM TCA and 2 μM cAMP for a further 4 days.
To analyze the biliary excretion index, cells were washed once and then incubate in HBSS buffer or Calcium free HBSS buffer at 37° C. […] Cumulative uptake was stopped by washing with cold HBSS buffer for three times. […] The amount of CLF was quantified by measuring fluorescence at 492 nm and 536 nm with a Synergy 4 microplate reader (Biotek, Winooski, USA). Biliary Excretion Index (BEI) was calculated as: BEI=(AHBSS−AHBSS([…]))/AHBSS×100%.
Membrane transporter-mediated biliary excretion is another important function of hepatocytes for clearance of xenobiotics. Drug clearance through biliary excretion is a critically evaluated property in the selection of drug candidates.

hiHep cells [3] = experiment: CYP metabolism assay in hiHep cells (LC-MS/MS of metabolic products)
Procedure: (§1) For the measurement of CYP enzyme activities, cells were induced with different compounds for certain drug metabolisms. The supernatants were collected for measurement of metabolized compounds by LC-MS/MS (Agilent 1200 HPLC and ABI 4000 mass-spectrometer).
(§2) Freshly thawed primary human hepatocytes were directly used as a positive control. Cells were incubated with substrate in 200 μl incubation medium at different concentrations for 3 hours at 37° C. To stop the reaction, […] cold methanol was added and centrifuged. The supernatants were collected for measurement of metabolized compounds by LC-MS/MS (Agilent 1200 HPLC and ABI 4000 mass-spectrometer). Total cell protein amount was used to normalize the data. Substrates and metabolized products used for standard curves were commercially purchased.
Freshly thawed primary human hepatocytes were directly used as a positive control.

MSC-hiHep cells = experiment: CYP metabolism assay in AD-MSC-derived hiHep cells
Procedure: as §2

hiHep^LT cells = experiment: CYP metabolism assay in hiHep^LT cells; conditions: passage 10
Procedure: as §1, §2

## Cc1ccc2cc3c(ccc4ccccc43)c3c2c1CC3 [3-methylcholanthrene]
[1]
  induction of mRNA expression levels of CYP1A2, CYP2A6, CYP2B6, CYP2C8 and CYP2C9: markedly induced

## CC(CCC(=O)NC(CCCCNC(=S)Nc1ccc(-c2c3ccc(=O)cc-3oc3cc(O)ccc23)c(C(=O)O)c1)C(=O)O)C1CCC2C3C(O)CC4CC(O)CCC4(C)C3CC(O)C12C (stereo not drawn) [CLF, cholyl-lysyl-fluorescein]
hiHep cells [2]
  biliary excretion indices (BEI): remarkable

## O=c1ccc2ccccc2o1 [coumarin]
hiHep cells [3]
  CYP enzyme-dependent metabolism: showed CYP enzyme-dependent metabolism

## COc1ccc2c(c1)[C@]13CCCC[C@@H]1[C@H](C2)N(C)CC3 [dextromethorphan]
MSC-hiHep cells
  products of metabolism: not detected
hiHep^LT cells
  products of metabolism: not detected
hiHep cells [3]; hiHep cells after 48 hours CYP induction, 3 hours incubation
  CYP enzyme-dependent metabolism: showed CYP enzyme-dependent metabolism

## CCC1(c2ccccc2)C(=O)NC(=O)NC1=O [phenobarbital]
[1]
  induction of CYP3A4 mRNA: relatively low but significant level
  induction of mRNA expression levels of CYP1A2, CYP2A6, CYP2B6, CYP2C8 and CYP2C9: markedly induced

## [D-Pen2,5]-enkephalin hydrate [DPDPE]
hiHep cells [2]
  biliary excretion indices (BEI): remarkable
